# Assay results: paper PMC6277767, “Broad and Region-Specific Impacts of the Synthetic Cannabinoid CP 55,940 in Adolescent and Adult Female Mouse Brains” (Frontiers in Molecular Neuroscience, 2018)
# Test system: CD1 female mouse brain lipidome
# Assay: Brain-region lipid levels (HPLC/MS/MS lipidomics) 2 h after single i.p. 3 mg/kg CP 55,940 vs vehicle
# Type: in vivo
# Protocol: The Bloomington Institutional Animal Care and Use Committee of Indiana University reviewed and approved the animal procedures. Female mice from the CD1 strain were utilized to match our study examining THC’s effects on the brain lipidome ([Leishman et al., 2018]). Mice were given a single i.p. injection of either 3 mg/kg CP or 1:1:18 cremophor:ethanol:saline vehicle (please refer to the section “3 mg/kg CP Is Relevant for Synthetic Cannabinoid Abuse and Has Stronger Effects on the Female Mouse Brain Lipidome During Adolescence” for a justification of dose and use of female mice). Three different age groups were given injections: PND 35 and PND 50 adolescents, and adult mice (PND 113). At least eight mice in each age group received CP and at least eight received vehicle. Matching the THC study time course ([Leishman et al., 2018]), mice were sacrificed via rapid decapitation 2 h after injection. Brains were immediately removed and flash-frozen in liquid nitrogen, and then stored at -80°C until dissections were performed. Brains were dissected on an ice-cold dissection plate into the following regions: STR, HIPP, CER, THAL, CTX, HYP, MID, and STEM. These abbreviations for these brain areas will be used exclusively when discussing the results generated by these specific dissections. Each dissected area was immediately placed in liquid nitrogen and then stored at -80°C until used for lipid extraction.
# Tissue extracts were performed as previously described ([Bradshaw et al., 2006]; [Stuart et al., 2013]; [Raboune et al., 2014]; [Leishman et al., 2016a],[b], [2017], [2018]). First, samples were shock frozen in liquid nitrogen, weighed, and transferred to a centrifuge tube. The mass of the largest sample was multiplied by 50 to determine how many milliliters of HPLC-grade methanol (Fisher, Fair Lawn, NJ, United States) to add. Then, samples were spiked with 500 pmol deuterium-labeled NAGly (d8NAGly; Cayman Chemical, Ann Arbor, MI, United States). Samples were placed on ice in darkness for 2 h then individually homogenized and centrifuged at 19,000 × g for 20 min at 20°C. Supernatants were diluted with HPLC water (purified in house) to make a solution of 75% water, 25% supernatant. Lipids were partially purified on C18 solid phase extraction columns (Agilent, Palo Alto, CA, United States). A series of four elutions with 1.5 mL of 60%, 75%, 85%, and 100% methanol were collected ([Stuart et al., 2013]; [Leishman et al., 2016a],[b], [2018]).
# As previously described ([Bradshaw et al., 2006]; [Tan et al., 2006]; [Smoum et al., 2010]; [Stuart et al., 2013]; [Tortoriello et al., 2013]; [Raboune et al., 2014]; [Leishman et al., 2016a],[b], [2017], [2018]), samples were analyzed using an Applied Biosystems API 3000 triple quadrupole mass spectrometer with electrospray ionization (Foster City, CA, United States). Using an Agilent XDB-C18 reversed phase analytical column and optimized mobile phase gradients, 20 μL from each elution were chromatographed. Two Shimadzu 10ADvp pumps (Columbia, MD, United States) provided the pressure for gradient elution. Mobile phase A: 20% methanol, 80% water (v/v) and 1 mM ammonium acetate (Sigma, St. Louis, MO, United States). Mobile phase B: 100% methanol, 1 mM ammonium acetate. Every method run began with 0% mobile phase B, reached 100% mobile phase B flowing at 0.2 mL/min, and gradually returned to 0% mobile phase B.
# This screening library will be referred to as the lipidome when discussing data from this study. HPLC/MS/MS data were analyzed using Analyst software (Applied Biosystems) ([Bradshaw et al., 2006]; [Tan et al., 2006]; [Stuart et al., 2013]; [Tortoriello et al., 2013]; [Raboune et al., 2014]; [Leishman et al., 2016a],[b], [2017], [2018]). Chromatograms (Supplementary Figure 3) were generated by determining the retention time of analytes from the analytical column with a [M-1] or [M+1] parent peak and a fragmentation peak corresponding to the programmed values. […]
# [1] = adult midbrain, 3mg/kg CP 55,940, p .049
# [2] = adult midbrain, 3mg/kg CP 55,940, p .055
# [3] = adult midbrain, 3mg/kg CP 55,940, p .060
# [4] = adult midbrain, 3mg/kg CP 55,940, p .063
# [5] = adult midbrain, 3mg/kg CP 55,940, p .073
# [6] = adult midbrain, 3mg/kg CP 55,940, p .087
# [7] = adult midbrain, 3mg/kg CP 55,940, p .098
# [8] = brainstem, PND35, 3 mg/kg CP 55,940 vs Veh
# [9] = brainstem, PND35 female mice, 3mg/kg CP 55,940, mean
# [10] = brainstem, PND 50, 3 mg/kg CP 55,940
smiles,measurement,setting,value
"CCCCCCC(C)(C)c1ccc([C@@H]2C[C@H](O)CC[C@H]2CCCO)c(O)c1 [CP 55,940]",PGE2 Direction (relative to Veh),[1],↑
same,PGE2 Magnitude (x Veh level),[1],1.17
same,6-ketoPGF1α Direction (relative to Veh),[2],↑
same,6-ketoPGF1α Magnitude (x Veh level),[2],1.29
same,"N-arachidonoyl ethanolamine, Direction (relative to Veh)",[3],↓
same,"N-arachidonoyl ethanolamine, Magnitude (x Veh level)",[3],0.78
same,N-linoleoyl glycine Direction (relative to Veh),[4],↓
same,N-linoleoyl glycine Magnitude (x Veh level),[4],0.52
same,N-stearoyl ethanolamine direction (relative to Veh),[5],↑
same,N-stearoyl ethanolamine magnitude (x Veh level),[5],1.44
same,N-linoleoyl serine Direction (relative to Veh),[6],↓
same,N-linoleoyl serine Magnitude (x Veh level),[6],0.79
same,N-arachidonoyl serine Direction (relative to Veh),[7],↓
same,N-arachidonoyl serine Magnitude (x Veh level),[7],0.53
same,changes in lipid levels that were decreases,"adult, eight regions",78
same,"2-arachidonoyl glycerol, Direction (relative to Veh)",[8],↓
same,"2-arachidonoyl glycerol, Magnitude (x Veh level)",[8],0.81 x Veh level
same,2-linoleoyl glycerol Direction (relative to Veh),[8],↓
same,2-linoleoyl glycerol Magnitude (x Veh level),[8],0.82 x Veh level
same,N-arachidonoyl GABA Direction (relative to Veh),[8],↓
same,N-arachidonoyl GABA Magnitude (x Veh level),[8],0.70 x Veh level
same,N-arachidonoyl taurine Direction (relative to Veh),[8],↓
same,N-arachidonoyl taurine Magnitude (x Veh level),[8],0.89 x Veh level
same,N-docosahexaenoyl leucine Direction (relative to Veh),[8],↑
same,N-docosahexaenoyl leucine Magnitude (x Veh level),[8],1.37 x Veh level
same,N-docosahexaenoyl valine Direction (relative to Veh),[8],↑
same,N-docosahexaenoyl valine Magnitude (x Veh level),[8],1.56 x Veh level
same,N-oleoyl leucine Direction (relative to Veh),[8],↑
same,N-oleoyl leucine Magnitude (x Veh level),[8],1.15 x Veh level
same,N-oleoyl proline Direction (relative to Veh),[8],↑
same,N-oleoyl proline Magnitude (x Veh level),[8],1.16 x Veh level
same,N-oleoyl valine Direction (relative to Veh),[8],↑
same,N-oleoyl valine Magnitude (x Veh level),[8],1.26 x Veh level
same,"N-palmitoyl leucine, Direction (relative to Veh)",[8],↑
same,"N-palmitoyl leucine, Magnitude (x Veh level)",[8],1.38 x Veh level
same,N-palmitoyl phenylalanine Direction (relative to Veh),[8],↑
same,N-palmitoyl phenylalanine Magnitude (x Veh level),[8],1.22 x Veh level
same,N-palmitoyl proline Direction (relative to Veh),[8],↑
same,N-palmitoyl proline Magnitude (x Veh level),[8],1.20 x Veh level
same,N-palmitoyl tryptophan Direction (relative to Veh),[8],↓
same,N-palmitoyl tryptophan Magnitude (x Veh level),[8],0.82 x Veh level
same,N-palmitoyl valine Direction (relative to Veh),[8],↑
same,N-palmitoyl valine Magnitude (x Veh level),[8],1.40 x Veh level
same,N-stearoyl valine Direction (relative to Veh),[8],↑
same,N-stearoyl valine Magnitude (x Veh level),[8],1.41 x Veh level
same,PGE2 Direction (relative to Veh),[8],↑
same,PGE2 Magnitude (x Veh level),[8],1.15 x Veh level
same,2-arachidonoyl glycerol level,[9],3.96E-10
same,2-linoleoyl glycerol level,[9],1.58E-10
same,2-oleoyl glycerol level,[9],1.53E-09
same,2-palmitoyl glycerol level,[9],2.82E-10
same,6-ketoPGF1α level,[9],1.2E-11
same,11-OH-THC level,[9],BDL
same,11-nor-9-carboxyTHC level,[9],BDL
same,Arachidonic acid level,[9],1.65E-09
same,Cannabidiol level,[9],BDL
same,Linoleic acid level,[9],5.88E-10
same,N- stearoyl valine level,[9],5.2E-13
same,N-arachidonoyl serine level,[9],3.04E-12
same,N-arachidonoyl taurine level,[9],1.88E-11
same,N-arachidonoyl tryptophan level,[9],BDL
same,N-arachidonoyl tyrosine level,[9],6.37E-13
same,N-docosahexaenoyl serine level,[9],1.42E-11
same,N-docosahexaenoyl tyrosine level,[9],8.89E-13
same,N-docosahexaenoyl valine level,[9],1.82E-13
same,N-linoleoyl serine level,[9],2.61E-11
same,N-linoleoyl tryptophan level,[9],BDL
same,N-linoleoyl tyrosine level,[9],BDL
same,N-nervonoyl valine level,[9],BDL
same,N-oleoyl proline level,[9],6.88E-13
same,N-oleoyl serine level,[9],1.44E-10
same,N-oleoyl tyrosine level,[9],5.15E-13
same,N-oleoyl valine level,[9],5.41E-13
same,N-palmitoyl proline level,[9],9.02E-13
same,N-palmitoyl serine level,[9],3.95E-11
same,N-palmitoyl tryptophan level,[9],2.02E-13
same,N-palmitoyl tyrosine level,[9],8.2E-13
same,N-palmitoyl valine level,[9],1.16E-12
same,N-stearoyl proline level,[9],4.63E-13
same,N-stearoyl serine level,[9],2.01E-11
same,N-stearoyl tryptophan level,[9],2.84E-13
same,N-stearoyl tyrosine level,[9],8.52E-14
same,Oleic acid level,[9],1.63E-09
same,PGE2 level,[9],2.93E-10
same,PGF2α level,[9],2.4E-10
same,PhosphoLEA level,[9],2.06E-11
same,THC level,[9],BDL
same,"2-arachidonoyl glycerol level, Mean",[10],2.23E-10
same,"2-linoleoyl glycerol level, Mean",[10],2.39E-10
same,"2-oleoyl glycerol level, Mean",[10],3.85E-09
same,"2-palmitoyl glycerol level, Mean",[10],8.83E-10
same,"6-ketoPGF1α level, Mean",[10],1.35E-11
same,"11-OH-THC level, Mean",[10],BDL
same,"11-nor-9-carboxyTHC level, Mean",[10],BDL
same,"Arachidonic acid level, Mean",[10],1.44E-10
same,"Cannabidiol level, Mean",[10],BDL
same,"Linoleic acid level, Mean",[10],1.4E-10
same,"N- stearoyl valine level, Mean",[10],8.37E-14
same,"N-arachidonoyl GABA level, Mean",[10],3.67E-12
same,"N-arachidonoyl alanine level, Mean",[10],1.22E-13
same,"N-arachidonoyl dopamine level, Mean",[10],BDL
same,"N-arachidonoyl ethanolamine level, Mean",[10],2.44E-11
